Experimental data reported in US9108930B2, “N1- and N2-carbamoyl-1,2,3-triazole serine hydrolase inhibitors and methods” (The Scripps Research Institute, priority 2011, dated 2015).

Key:
[1] = biological target: T1, ABHD6 (Mus musculus, UniProt Q8R2Y0); assay: ABPP-SILAM of brain tissue from treated mice; format: in vivo; design: from tissue; host or cells: thioglycolate-elicited peritoneal macrophages of mice; conditions: may not represent actual changes
T1 sequence (Q8R2Y0 1-336): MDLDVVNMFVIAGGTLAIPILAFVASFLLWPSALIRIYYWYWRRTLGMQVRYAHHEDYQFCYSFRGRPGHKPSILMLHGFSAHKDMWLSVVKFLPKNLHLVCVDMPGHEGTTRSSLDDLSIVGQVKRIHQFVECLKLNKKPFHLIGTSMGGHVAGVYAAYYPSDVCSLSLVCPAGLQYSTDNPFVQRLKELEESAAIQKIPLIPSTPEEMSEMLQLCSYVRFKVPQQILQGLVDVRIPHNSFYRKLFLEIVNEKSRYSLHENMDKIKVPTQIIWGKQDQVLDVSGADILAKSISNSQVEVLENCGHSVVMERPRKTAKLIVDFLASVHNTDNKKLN
Procedure: The potency and selectivity of 1,2,3-triazole ureas in vivo also was investigated. Mice were treated with the APEH inhibitor AA74-1 at various doses (0.2-1.6 mg/kg; PEG300 or 18:1:1 saline/ethanol/emulphor intraperitoneally) and sacrificed after 4 h. Brains and hearts were removed, homogenized, and analyzed by gel-based competitive ABPP. […] Finally, the possibility of extending ABPP-SILAC for the characterization of inhibitor selectivity in vivo was explored by taking advantage of recently described protocols for stable isotope labeling in mammals (SILAM). In this approach, brain tissues from vehicle- and AA74-1-treated mice were separately mixed with equivalent amounts of brain tissue from ‘heavy’ amino acid-fed mice, and the samples were then labeled with FP-biotin, enriched by avidin chromatography, analyzed by LC-MS, and SH activities quantified by measuring the ratio-of-ratios for observed peptide signals. […] The ratio-of-ratio signals for APEH indicated greater than 90% inhibition of this enzyme in AA74-1-treated animals (FIG. 5b, top), consistent with average spectral count values (14 and 1 spectral counts for APEH in vehicle-treated versus AA74-1-treated mice, respectively; FIG. 5b, bottom). […]
C57BL6 mice were labeled with ^15N. […] Brains were determined to be 95% labeled by mass spectrometry with ^15N and used for quantitative analysis. […]

[2] = system: peritoneal macrophages; assay: LPS-stimulated TNF-alpha release (ELISA), macrophages from treated C57 BL/6 mice; format: in vivo, mouse; conditions: 5 mg/kg, 4 hours, i.p.; LPS 5 μg/mL, 90 min
Procedure: The effects of DAGLB-inhibition on the proinflammatory response in Pla2g4a^+/+ versus Pla2g4a^−/− mice also was evaluated. Thioglycolate-elicited macrophages from C57 BL/6 mice treated with KT109 or KT195 (5 mg/kg, 4 hours, i.p.) were harvested, plated, and stimulated with lipopolysaccharide (LPS).

In the case of `CC(C)CC(O)(CC(C)C)c1cnn(C(=O)N2CCCC2)n1` [AA74-1], the “partial inhibition of ABHD6 suggested by ratio-of-ratio signals” value [1] is reported as 50-60%.

In the case of `O=C(N1CCCCC1Cc1ccccc1)n1cc(-c2ccc(-c3ccccc3)cc2)nn1` (centres unmarked) [KT109], the “secreted TNF-alpha levels” value [2] is reported as “modest but significant reduction in secreted TNF-alpha levels”.
